Measurements published in patent publication US10849926B2, “GM3-promoted inflammation inhibitor and inflammatory cytokine production inhibitor” (THE NOGUCHI INSTITUTE, priority 2015, dated 2020).

Columns and labels:
[1] = tested on: Human peripheral blood-derived monocytes (CD14 positive cells); assay: LPS-dependent inflammatory cytokine production in human peripheral blood-derived monocytes (ELISA); assay type: cell-based; conditions: LPS 0.125 ng/mL + 1.25, 2.5, or 5.0 μM ganglioside; for production of IL-6 by LPS: 18 hours (FIG. 8); for production of IL-1β by LPS: 18 hours (FIG. 9); for production of TNF-α by LPS: 18 hours (FIG. 10)
Experimental: (§1) Human peripheral blood-derived monocytes (CD14 positive cells) were cultured in DMEM (Low Glucose) containing 0.5% FCS and 25 ng/mL of granulocyte/macrophage colony stimulating factor, and co-stimulated with 0.125 ng/mL of E. coli-derived lipopolysaccharide (LPS, E. coli O111:B4), and 1.25, 2.5, or 5.0 μM of N-mix (neutral glycosphingolipid mixture (Glc-Cer, Lac-Cer, Gb3, and Gb4)) or each of the ganglioside molecular species. 18 hours later, the inflammatory cytokines (IL-6, IL-1β, and TNF-α) secreted in the culture supernatant were quantitated using the ELISA method.

[2] = tested on: human monocytes; assay: IL-6 production in human monocytes by LPS with or without GM3C22 or GM3C24 (ELISA); assay type: cell-based; conditions: for production of IL-6 in response to stimulation promoted by the addition of GM3C22 and GM3C24: LPS 0.06 ng/mL + GM3C22 or GM3C24, 18 hours (FIG. 11); for production of IL-6 in response to LPS stimulation: LPS 0.06 ng/mL only, 18 hours (FIG. 11)
Experimental: as §1
Under the same culture conditions as in Example 5, “GM3C16”, “GM3C18” or “GM3C24:1” which inhibited inflammation was combined to “GM3C22” or “GM3C24” which promoted inflammation. The resultant combination was added to the monocytes and further stimulated with 0.06 ng/mL of LPS (i.e., a TLR4 activating factor). 18 hours later, the inflammatory cytokine IL-6 secreted in the culture supernatant was quantitated using the ELISA method.

[3] = tested on: TLR4; assay: IL-6 production in human monocytes stimulated with LPS (TLR4 activating factor); assay type: cell-based; conditions: LPS 0.125 ng/mL, 5 μM GM3 molecular species, 18 hours (FIG. 12)
Experimental: as §1
(§2) Then, under the same culture conditions as in Example 5, human monocytes were stimulated using any of 0.125 ng/mL of LPS (i.e., TLR4 activating factor), 5.0 μg/mL of high mobility group box 1 (HMGB 1) (i.e., a TLR4 and TLR2 activating factors), 20 ng/mL of Pam3Csk4 (i.e., a TLR1 and TLR2 activating factors), 1.0 ng/mL of MALP-2 (i.e., TLR2 and TLR6 activating factors), 50 ng/mL of Flagellin (i.e., a TLR5 activating factor), and 250 ng/mL of R-848 (i.e., TLR7 and TLR8 activating factors); and 5 μM of GM3 molecular species. 18 hours later, the inflammatory cytokine IL-6 secreted in the culture supernatant was quantitated using the ELISA method.

[4] = tested on: TLR4 and TLR2; assay: IL-6 production in human monocytes stimulated with HMGB1 (TLR4 and TLR2 activating factor); assay type: cell-based; conditions: HMGB 1 5.0 μg/mL, 5 μM GM3 molecular species, 18 hours (FIG. 12)
Experimental: as §1, §2

[5] = tested on: TLR1 and TLR2; assay: IL-6 production in human monocytes stimulated with Pam3Csk4 (TLR1 and TLR2 activating factor); assay type: cell-based; conditions: Pam3Csk4 20 ng/mL, 5 μM GM3 molecular species, 18 hours (FIG. 12)
Experimental: as §1, §2

[6] = tested on: Toll-like receptor (TLR) on human monocytes; assay: IL-6 production in human monocytes stimulated with other TLR activating factors (Pam3Csk4, MALP-2, Flagellin, R-848); assay type: cell-based; conditions: 5 μM GM3 molecular species, 18 hours (FIG. 12)
Experimental: as §1, §2

[7] = tested on: RAW 264.7 cells; assay: LPS-dependent TNF-α production in RAW 264.7 cells (ELISA); assay type: cell-based, mouse; conditions: for TNF-α production by LPS on addition of 1 μM or less of ganglioside: LPS 2.0 ng/mL (FIG. 4); for TNF-α production by LPS: LPS 0.5 ng/mL + each glycosphingolipid 1.0 μM, 0.5% fetal bovine serum, 18 hours (FIG. 3); for inflammation promoted by LPS (LPS-dependent TNF-α production): LPS 2.0 ng/mL + glycosphingolipid 0.25 to 2.0 μM, 18 hours (FIG. 4)
Experimental: A serum ganglioside mimic resembling the composition of these gangliosides was used to treat a macrophage-like cultured cell line in which the serum in the medium was removed and reduced: RAW 264.7 cells (0.5% fetal bovine-derived serum). Then, an actual influence on TNF-α production by TLR4 ligand (LPS) stimulation was examined.
RAW 264.7 cells cultured overnight in DMEM containing 0.5% fetal bovine serum were co-stimulated by 0.5 ng/mL of lipopolysaccharide (LPS) and ganglioside (serum ganglioside mimic) at a concentration resembling the composition of serum ganglioside. 18 hours later, the TNF-α in the culture supernatant was quantitated by an ELISA method.
RAW 264.7 cells cultured overnight in DMEM containing 0.5% fetal bovine serum were co-stimulated by LPS (0.5 ng/mL) and each glycosphingolipid (1.0 μM). 18 hours later, the TNF-α in the culture supernatant was quantitated by the ELISA method.
RAW 264.7 cells cultured overnight in DMEM containing 0.5% fetal bovine serum were co-stimulated by LPS (2.0 ng/mL) and each glycosphingolipid (0.25 to 2.0 μM). 18 hours later, the TNF-α in the culture supernatant was quantitated by the ELISA method.

[8] = tested on: RAW 264.7 cells; assay: Cooperative TNF-α production by LPS and GM3 in RAW 264.7 cells (ELISA); assay type: cell-based, mouse; conditions: LPS 0.5 ng/mL; for TNF-α production by LPS and GM3 on addition of 1 μM or less of ganglioside: 1 μM (GM3 ratio; 10:1) or less, GM3 5.0 μM (FIG. 5); for synergistic increases in productions of TNF-α by GM3 and LPS: glycosphingolipid 0.25 to 1.0 μM
Experimental: RAW 264.7 cells cultured overnight in DMEM containing 0.5% fetal bovine serum were co-stimulated by each glycosphingolipid (0.25 to 1.0 μM), LPS (0.5 ng/mL), and GM3 (5.0 μM). 18 hours later, the TNF-α in the culture supernatant was quantitated by the ELISA method.

[9] = tested on: bone marrow-derived macrophages (BMDMs); assay: LPS-dependent TNF-α production in bone marrow-derived macrophages (ELISA); assay type: cell-based, mouse; conditions: LPS 0.5 ng/mL + glycosphingolipid 10 μM, 18 hours (FIG. 6)
Experimental: (§3) Bone marrow-derived cells harvested from the femur and tibia of C57/BL6 mice were induced to differentiate for one week using 20 ng/mL of recombinant macrophage colony-stimulating factor (M-CSF). The obtained bone marrow-derived macrophages (BMDMs) were cultured overnight in DMEM containing 0.5% fetal bovine serum and co-stimulated with LPS (0.5 ng/mL) and each glycosphingolipid (10 μM). 18 hours later, the TNF-α in the culture supernatant was quantitated by the ELISA method.

[10] = tested on: bone marrow-derived macrophages (BMDMs); assay: Cooperative TNF-α production by LPS and GM3 in bone marrow-derived macrophages (ELISA); assay type: cell-based, mouse; conditions: LPS 0.5 ng/mL, GM3 10 μM, glycosphingolipid 10 μM, 18 hours (FIG. 7)
Experimental: as §3, with “ng/mL), GM3 (10 μM),” for “ng/mL)”, “μM). After” for “μM).”, “hours,” for “hours later,”, “quantified” for “quantitated”

| Compound | production of IL-6 by LPS [1] | production of IL-1β by LPS [1] | production of TNF-α by LPS [1] | production of IL-6 in response to stimulation promoted by the addition of GM3C22 and GM3C24 [2] | production of IL-6 in response to LPS stimulation [2] | IL-6 production by LPS [3] | IL-6 production by HMGB1 [4] | IL-6 production by Pam3Csk4 [5] | IL-6 production in other TLR activating factors [6] | TNF-α production by LPS on addition of 1 μM or less of ganglioside [7] | TNF-α production by LPS [7] | inflammation promoted by LPS (LPS-dependent TNF-α production) [7] | TNF-α production by LPS and GM3 on addition of 1 μM or less of ganglioside [8] | synergistic increases in productions of TNF-α by GM3 and LPS ([8]; GM3 5.0 μM, 18 hours (FIG. 5)) | LPS-dependent TNF-α production in bone marrow-derived macrophages [9] | cooperative TNF-α production by LPS and GM3 in bone marrow-derived macrophages [10] | IC50 ([8]; TNF-α production, GM3 5.0 μM, 18 hours (FIG. 5), read-out: 50% inhibitory concentration for cooperative activation of LPS and GM3) [nM] |
| --- | --- | --- | --- | --- | --- | --- | --- | --- | --- | --- | --- | --- | --- | --- | --- | --- | --- |
| CCCCCCCCCCCCCC=CC(O)C(COC1OC(CO)C(OC2OC(CO)C(O)C(OC3(C(=O)O)CC(O)C(NC(C)=O)C(C(O)C(O)CO)O3)C2O)C(O)C1O)NC(=O)CCCCCCCCCCCCCCC (centres unmarked) [GM3C16] | inhibiting | inhibiting | inhibiting | strongly inhibited | strongly inhibited | inhibitory action | inhibitory action | inhibitory action was also observed |  |  |  |  |  |  |  |  |  |
| CCCCCCCCCCCCCC=CC(O)C(COC1OC(CO)C(OC2OC(CO)C(O)C(OC3(C(=O)O)CC(O)C(NC(C)=O)C(C(O)C(O)CO)O3)C2O)C(O)C1O)NC(=O)CCCCCCCCCCCCCCCCC (centres unmarked) [GM3C18] | inhibiting | inhibiting | inhibiting | strongly inhibited | strongly inhibited | inhibitory action | inhibitory action | inhibitory action was also observed |  |  |  |  |  |  |  |  |  |
| CCCCCCCCCCCCCC=CC(O)C(COC1OC(CO)C(OC2OC(CO)C(O)C(OC3(C(=O)O)CC(O)C(NC(C)=O)C(C(O)C(O)CO)O3)C2O)C(O)C1O)NC(=O)CCCCCCCCCCCCCCCCCCCCC (centres unmarked) [GM3C22, reference compound] | significantly enhanced | significantly enhanced | significantly enhanced |  |  | selectively increased | selectively increased |  | no increase |  |  |  |  |  |  |  |  |
| CCCCCCCCCCCCCC=CC(O)C(COC1OC(CO)C(OC2OC(CO)C(O)C(OC3(C(=O)O)CC(O)C(NC(C)=O)C(C(O)C(O)CO)O3)C2O)C(O)C1O)NC(=O)CCCCCCCCCCCCCCCCCCCCCCC (centres unmarked) [GM3C24, reference compound] | significantly enhanced | significantly enhanced | significantly enhanced |  |  | selectively increased | selectively increased |  | no increase |  |  |  |  |  |  |  |  |
| CCCCCCCCC=CCCCCCCCCCCCCCC(=O)NC(COC1OC(CO)C(OC2OC(CO)C(O)C(OC3(C(=O)O)CC(O)C(NC(C)=O)C(C(O)C(O)CO)O3)C2O)C(O)C1O)C(O)C=CCCCCCCCCCCCCC (centres unmarked) [GM3C24:1] | inhibiting | inhibiting | inhibiting | strongly inhibited | strongly inhibited | inhibitory action | inhibitory action | inhibitory action was also observed |  |  |  |  |  |  |  |  |  |
| CCCCCCCCCCCCCC=CC(O)C(COC1OC(CO)C(OC2OC(CO)C(O)C(OC3(C(=O)O)CC(O)C(NC(C)=O)C(C(O)C(O)CO)O3)C2O)C(O)C1O)NC(=O)C(O)CCCCCCCCCCCCCCCCCCCCCC (centres unmarked) [GM3hC24, reference compound] | significantly enhanced | significantly enhanced | significantly enhanced |  |  | selectively increased | selectively increased |  | no increase |  |  |  |  |  |  |  |  |
| GD1a |  |  |  |  |  |  |  |  |  | almost completely inhibited | strongly inhibited | inhibited in a concentration-dependent manner | almost completely inhibited | inhibited in a concentration-dependent manner | inhibited | strongly inhibited |  |
| GD1b |  |  |  |  |  |  |  |  |  | almost completely inhibited | significantly strongly inhibited | inhibited in a concentration-dependent manner | almost completely inhibited | inhibited in a concentration-dependent manner | inhibited | strongly inhibited |  |
| GT1b |  |  |  |  |  |  |  |  |  | almost completely inhibited | significantly strongly inhibited | inhibited in a concentration-dependent manner | almost completely inhibited | inhibited in a concentration-dependent manner | inhibited | strongly inhibited | 250 |
| α-Neu5Ac-(2-3)β-Gal-(1-4)-β-Glc-(1-1)-ceramide [GM3, reference compound] |  |  |  |  |  |  |  |  |  |  | significantly increased |  |  |  |  |  |  |
